# Laboratory results as given in patent US20080312305A1, “Imidazoles as Gaba- B Receptor Modulators” (priority 2005, published 2008).
# pEC50: −log10 of the molar value.
# Molecular target: T1, GABAB receptor (GABABR1a/GABABR2) (Homo sapiens, UniProt O75899+Q9UBS5)
# T1 construct: expressed in transfected cells; membranes prepared from the cells
# Test: [35S]-GTPγS binding assay, potency of positive allosteric modulator on GABA EC50
# Assay type: biochemical
# Settings: potency of the positive allosteric modulator (log EC50 for GABA plotted against log modulator concentration)
# Excerpt: GABABR1a and GABABR2 were cloned from human brain cDNA and subcloned into pCI-Neo (Promega) and pALTER-1 (Promega), respectively. A GABABR1a-Gαqi5 fusion protein expression vector was constructed using the pCI-Neo-GABABR1a cDNA plasmid and pLEC1-Gαqi5 (Molecular Devices, Calif.). In order to make the Gαqi5 pertussis toxin insensitive, Cys356 was mutated to Gly using standard PCR methodology with the primers 5′-[…]-3′ (forward) and 5′-GCGGCCG […]-3′ (reverse). The Gαqi5mut cDNA was ligated into the BamHI and NotI sites of pcDNA3.0 (Invitrogen). The GABABR1a coding sequence was amplified by PCR from pCI-Neo-GABABR1a using the primers, 5′-[…]-3′ (forward) and 5′-[…]-3′ (reverse) and subcloned into the BamHI site of pcDNA3.0-Gαqi5mut.
# For generation of stable cell lines, CHO-K1 cells were grown in Nut mix F-12 (Ham) media supplemented with 10% FBS, 100 U/ml Penicillin and 100 μg/ml Streptomycin at 37° C. in a humidified CO2-incubator. […]
# [^35S]-GTPγS binding assays were performed at 30° C. for 45 min in membrane buffer (100 mM NaCl, […], 1 mM EDTA, 50 mM HEPES, pH 7.4) containing 0.025 μg/μl of membrane protein (prepared from the cell lines described above) with 0.01% bovine serum albumin (fatty acid free), 10 μM GDP, 100 μM DTT and 0.53 nM [^35S]-GTPγS (Amersham-Pharmacia Biotech) in a final volume of 200 μl. Non-specific binding was determined in the presence of 20 μM GTPγS. […]
# T1 sequence (Q9UBS5 15-961 limits assumed): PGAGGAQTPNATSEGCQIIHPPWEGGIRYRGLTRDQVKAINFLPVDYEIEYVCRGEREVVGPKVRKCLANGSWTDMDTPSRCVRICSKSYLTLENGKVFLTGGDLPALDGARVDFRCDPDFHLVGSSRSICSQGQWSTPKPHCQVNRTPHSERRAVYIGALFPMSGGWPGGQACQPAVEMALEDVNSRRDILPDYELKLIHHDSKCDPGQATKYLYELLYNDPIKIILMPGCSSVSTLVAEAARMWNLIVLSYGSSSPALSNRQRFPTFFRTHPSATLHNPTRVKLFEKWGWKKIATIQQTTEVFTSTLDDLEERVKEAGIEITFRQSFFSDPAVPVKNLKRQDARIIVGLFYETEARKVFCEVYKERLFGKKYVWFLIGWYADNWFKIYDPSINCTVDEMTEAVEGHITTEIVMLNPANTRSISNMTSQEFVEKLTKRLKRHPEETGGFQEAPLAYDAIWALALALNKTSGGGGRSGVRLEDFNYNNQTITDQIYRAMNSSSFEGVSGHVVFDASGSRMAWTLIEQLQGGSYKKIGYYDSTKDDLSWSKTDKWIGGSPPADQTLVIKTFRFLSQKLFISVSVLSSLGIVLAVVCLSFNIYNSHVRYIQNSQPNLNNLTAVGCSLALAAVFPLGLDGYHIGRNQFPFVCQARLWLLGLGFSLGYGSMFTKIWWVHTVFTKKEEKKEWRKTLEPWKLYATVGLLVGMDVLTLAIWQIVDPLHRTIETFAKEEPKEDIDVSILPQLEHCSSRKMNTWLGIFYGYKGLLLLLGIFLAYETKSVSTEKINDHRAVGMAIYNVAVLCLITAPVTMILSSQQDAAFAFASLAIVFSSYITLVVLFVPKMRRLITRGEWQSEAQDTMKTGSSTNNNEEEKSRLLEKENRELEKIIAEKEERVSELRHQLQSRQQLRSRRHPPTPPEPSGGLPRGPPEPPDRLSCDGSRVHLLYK
# T1 sequence (O75899 42-941): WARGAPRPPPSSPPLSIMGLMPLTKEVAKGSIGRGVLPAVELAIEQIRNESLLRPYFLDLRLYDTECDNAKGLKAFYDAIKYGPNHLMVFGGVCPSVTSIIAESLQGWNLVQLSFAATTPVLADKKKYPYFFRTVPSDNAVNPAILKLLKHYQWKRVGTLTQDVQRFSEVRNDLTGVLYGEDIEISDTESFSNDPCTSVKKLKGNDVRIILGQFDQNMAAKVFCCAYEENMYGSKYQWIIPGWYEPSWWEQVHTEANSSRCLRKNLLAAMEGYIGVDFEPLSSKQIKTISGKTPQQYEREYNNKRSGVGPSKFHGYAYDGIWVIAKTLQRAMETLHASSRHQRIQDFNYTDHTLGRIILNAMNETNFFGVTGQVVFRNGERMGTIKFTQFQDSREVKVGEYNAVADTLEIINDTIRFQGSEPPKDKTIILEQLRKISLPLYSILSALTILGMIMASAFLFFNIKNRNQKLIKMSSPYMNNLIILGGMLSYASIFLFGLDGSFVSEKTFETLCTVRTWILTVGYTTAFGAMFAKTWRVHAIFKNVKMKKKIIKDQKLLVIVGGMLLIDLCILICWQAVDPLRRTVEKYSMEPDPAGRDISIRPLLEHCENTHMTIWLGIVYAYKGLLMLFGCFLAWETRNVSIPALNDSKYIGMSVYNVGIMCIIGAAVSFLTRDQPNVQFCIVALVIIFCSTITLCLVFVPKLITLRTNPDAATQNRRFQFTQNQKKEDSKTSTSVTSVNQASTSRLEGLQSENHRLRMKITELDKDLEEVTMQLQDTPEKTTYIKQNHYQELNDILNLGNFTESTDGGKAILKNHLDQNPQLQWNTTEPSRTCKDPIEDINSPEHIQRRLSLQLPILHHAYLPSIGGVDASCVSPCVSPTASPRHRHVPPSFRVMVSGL
row,pEC50,SMILES
1,5.43,"CCCc1nc(NC(=O)C2COc3ccccc3O2)c(C(=O)OC(C)(C)C)n1CC(C)C (centres unmarked) [Example 21, Tert-butyl 4-[(2,3-dihydro-1,4-benzodioxin-2-ylcarbonyl)amino]-1-isobutyl-2-propyl-1H-imidazole-5-carboxylate]"
2,5.26,"CCCc1nc(NC(=O)C2COc3ccccc3O2)c(C(=O)OCC)n1CC(C)C (centres unmarked) [Example 25, Ethyl 4-[(2,3-dihydro-1,4-benzodioxin-2-ylcarbonyl)amino]-1-isobutyl-2-propyl-1H-imidazole-5-carboxylate]"
